The IC50 is the concentration that inhibits the measured activity by half. Broadly, the MIC is the smallest concentration in the dilution series that meets the test's criterion for growth inhibition.

Values after ≈ are worked out from the molar mass of the structure shown. Like-named read-outs stand apart in the source and are kept apart here.

One series is described as follows: Cytotoxicity assay (MTT). The series is classed as cell-based. The procedure: (§1) To evaluate the biological effects of compounds 1–6, various assays were carried out. The antimicrobial activity of the isolated compounds against Bacillus subtilis DSM10, Escherichia coli DSM498, Candida tenuis MUCL29892, and Mucor plumbeus MUCL49355 was determined as described by Kuephadungphan and co-workers. The nematicidal activity against Caenorhabditis elegans was investigated using a microtiter plate assay according to Helaly and co-workers, while the cytotoxicity was tested against murine fibroblast (L929) and human HeLa (KB3.1) cell lines according to Chepkirui and co-workers.
(§2) Biological activity screening of compounds 1–6 […]
The isolated compounds were tested for cytotoxic activity using the MTT (3 -(4,5-dimethylthiayol -2-yl)-2,5-diphenyltetrayolium bromide) method in 96 -well microtiter plates following the procedure previously described by Chepkirui et al.7 against th e cervix carcino ma cell line KB3.1 and the established mouse fibroblast cell line L929. The assay was kindly conducted by Wera Collisi, Department of Microbial Drugs, Helmholtz Centre of Infection Research, Germany. The tested cell lines were cultured in EBM -2 (Lonza) sup plemented with 10% fetal bovine serum (Gibco) under 10% CO2 at 37 °C. A 60 µL of serial dilutions from an initial stock (1 mg/mL) of the test compounds in MeOH was added to 120 µL aliquots of a cell suspension (50,000 cells/mL) in 96-well microplates.
After incubation for five days, 20 µL of MTT in phosphate buffered saline (PBS) were added to give a final concentration of 0.5 mg/mL. The plates were further incubated for two hours. The precipitate […]
of formazan crystals was centrifuged and the supernatant was then discarded. Each well was washed with 100 µL of PBS and 100 µL of isopropanol containing 0.4% hydrochloric acid were subsequently added in order to get the residual dissolved. The plates were gently shaken for 20 min before the absorbance at 590 nm was measured using an ELISA microplate reader (Victor). The concentration, at which the growth of cells was inhibited to 50% of the control (IC50), was obtained from the dose - response curves. Methanol was used as negative control while epothilone A and B wer e used as positive controls for L929 and KB3.1 cell lines, respectively. […]
(§3) After incubation at 37 °C under shaking condition, the overnight cultures were adjusted to equal the turbidity of 0.5 McFarland standard using the assay medium. The assay was carried out in 96 -well tissue cultured -treated microplates (TPP®, Germany) for S. aureus and non-treated plates (Falcon®MicroTestTM, USA) for P. aeruginosa , in which 10 μ L of each compound (0.5 mg/m L) in six replicates were mixed together with 140 μ L of bacterial suspension. Methanol and CASO medium with and without 4% glucose were used as negative controls and tetracycline (100 μg/m L) as positive control. Plates were covered with a sterile adhesive porous paper (Kisker Biotech GmbH, Steinfurt, Germany) and incubated at 37 °C for 24 h.
After incubation, ba cterial biofilms were stained with 0.1% crystal violet solution (Sigma -Aldrich) following the protocol of O’Toole .9 Then, the biofilm was subsequently quantified using a microplate reader at 550 nm. […]
aeruginosa PA14 were further evaluated for their bacteriostatic and bactericidal activit ies. The assay was performed in the Bioscreen 100 -well Honeycomb plate according to the protocol described by Yuyama et al. 13 where the MIC values were determined. […]

Series [1] deals with Staphylococcus aureus DSM1104. Put plainly: Anti-biofilm activity, microtiter dish biofilm formation assay. The series is classed as cell-based. The following applies: S. aureus DSM1104 (ATCC25923); lowest concentration preventing biofilm formation by at least 50%; 24 h; NA = No activity. The protocol: (§4) The isolated compounds were also tested for their ability to interfere in the biofilm formation of Staphylococcus aureus DSM1104 and Pseudomonas aeruginosa PA14 [51]. The biofilm inhibition assay was performed in 96-well microtiter plates using the microtiter dish biofilm formation assay described by O’Toole, with minor modifications, as outlined in our recent publications. The antibiofilm activity is expressed as MIC values, which is defined as the lowest concentration of substance that prevents biofilm formation of a target microorganism by at least 50%. […]
(§5) Anti-biofilm activity assay
as §3, with “The determination of the ability of isolated compounds to prevent biofilm formation of S. aureus DSM1104 (ATCC25923) and P. aeruginosa PA148 was performed using the microtiter dish biofilm formation assay described by O’Toole9 with minor modification provided in our recent publications 1, 6, 10–14. The biofilm forming strains were enriched overnight in CASO medium with and without 4% glucose for S. aureus and P. aeruginosa , respectively. After” for “After”
(§6) After incubation, ba cterial biofilms were stained with 0.1% crystal violet solution (Sigma -Aldrich) following the protocol of O’Toole .9 Then, the biofilm was subsequently quantified using a microplate reader at 550 nm. 12 In the current study, the antibiofilm activity was expr essed as MIC value which was defined as the lowest concentration of substance that prevents the biofilm formation of a target microorganism by at least 50%. […]

In another series the test system is Bacillus subtilis DSM10. In words: Antimicrobial activity, broth microdilution MIC. Type of series: cell-based. Conditions: Bacillus subtilis DSM10, 24 h, range 2.34–300 μg/mL, NA = No activity. The protocol:
as §1
(§7) Biological activity screening of compounds 1–6
(§8) Antimicrobial activity assay
(§9) The minimum inhibitory concentration (MIC) of compounds 1–6 was determined using the broth microdilution method according to Kuephadungphan et al.4 against B. subtilis DSM10, E. coli DSM498, C. tenuis MUCL29892 and M. plumbeus MUCL49355. Stock suspension of each bacterium and yeast (100 μL) was transferred to 100 mL of EBS medium and YM medium, respectively.
(§10) Suspensions of B. subtilis and C. tenuis were incubated on a rotary shaker at 30 °C for 18–24 h while E. coli was grown at 37 °C for 24 h. After incubation, the suspension was adjusted to a concentration of 6.7 × 10^5 cells/mL using a hemacytometer. The spore suspension of M. plumbeus was prepared at a concentration of 6.7 × 10^5 conidia/mL using YM medium. The determination of MIC was performed in a 96-well microtiter plate. The compounds dissolved in methanol at a concentration of 4.5 mg/mL (20 μL) were transferred to the first row of the plate. Standard antibiotics including ciprofloxacin (bacteria) and nystatin (yeast and fungus), and methanol were used as positive and negative controls, respectively. Inoculum suspension (280 μL) was added to the first row containing compounds and 150 μL were added to the rest. The solutions were then serially 2-fold diluted to 8 concentrations ranging from 2.34–300 μg/mL. Plates were incubated at 30 °C on a microplate-vibrating shaker for 24 h for bacteria and 48 h for yeast and filamentous fungus. […]
(§11) The assay was kindly conducted by Wera Collisi, Department of Microbial Drugs, Helmholtz Centre of Infection Research, Germany. The tested cell lines were cultured in EBM -2 (Lonza) sup plemented with 10% fetal bovine serum (Gibco) under 10% CO2 at 37 °C. A 60 µL of serial dilutions from an initial stock (1 mg/mL) of the test compounds in MeOH was added to 120 µL aliquots of a cell suspension (50,000 cells/mL) in 96-well microplates.
(§12) After incubation for five days, 20 µL of MTT in phosphate buffered saline (PBS) were added to give a final concentration of 0.5 mg/mL. The plates were further incubated for two hours. The precipitate
Background: Dilution methods test growth across graded concentrations, often in twofold steps.

A further series deals with Escherichia coli DSM498. In words: Antimicrobial activity, broth microdilution MIC. The series is classed as cell-based. Conditions: 24 h, NA = No activity. The procedure:
as §1, §7, §8, §9, §10, §11, §12

Another series relates to Candida tenuis MUCL29892. Put plainly: Antimicrobial activity, broth microdilution MIC. Conditions: Candida tenuis MUCL 29892; 48 h; NA = No activity. The series is classed as cell-based. The protocol:
as §1, §7, §8, §9, §10, §11, §12

The next series deals with Mucor plumbeus MUCL49355. Put plainly: Antimicrobial activity, broth microdilution MIC. The series is classed as cell-based. The following applies: Mucor plumbeus MUCL 49355; 48 h; NA = No activity. The protocol: as §1, §7, §8, §9, §10, §11, §12
Series [2] relates to Pseudomonas aeruginosa PA14. In words: Anti-biofilm activity, microtiter dish biofilm formation assay. The following applies: lowest concentration preventing biofilm formation by at least 50%, 24 h, NA = No activity. The series is classed as cell-based. The procedure: as §4, §5
as §3, with “The determination of the ability of isolated compounds to prevent biofilm formation of S. aureus DSM1104 (ATCC25923) and P. aeruginosa PA148 was performed using the microtiter dish biofilm formation assay described by O’Toole9 with minor modification provided in our recent publications 1, 6, 10–14. The biofilm forming strains were enriched overnight in CASO medium with and without 4% glucose for S. aureus and P. aeruginosa , respectively. After” for “After”
as §6

Details of series [3]: method as in PMID 2143181. Conditions: cited from earlier work.
The next series deals with Caenorhabditis elegans. Put plainly: Nematicidal activity microwell plate assay. Type of series: cell-based. The following applies: 18 h, tested 100, 50, 20 and 10 μg/mL, NA = No activity. The procedure: as §1, §2
Nematicidal activity assay
The nematicidal activity of the new compounds against C. elegans was performed by a microwell plate assay reported by Stadler et al.5 with slightly modification. The modified protocol was reported by Helaly et al.6 The studied compounds were dissolved with methanol to a concentration of […] and subsequently diluted 1:100 with sterile distilled water. […] Finally, the nematodes were counted using a Malassez counting chamber and further adjusted to obtain a concentration of 500 nematodes/mL with sterile distilled water. […] The plate was incubated at 20 °C in the dark and nematicidal activity was recorded after 18 h of incubation. The nematodes were counted under a stereo microscope. […]

As for `CCCC[C@H](C)[C@@H]1CC(=O)N[C@@H](Cc2ccccc2)C(=O)N[C@@H](C)C(=O)N[C@H](CC(C)C)C(=O)O1` [Beauverolide I (5), beauverolide I], the IC50 at 5 days in “Cytotoxicity assay (MTT)” (human) is 20 µg/mL (≈ 41 µM).
As to `CCCC[C@H](C)[C@@H]1CC(=O)N[C@@H](Cc2ccc(O)cc2)C(=O)N[C@@H](C)C(=O)N[C@H](CC(C)C)C(=O)O1` [Beauverolide N (4), beauverolide N], in “Cytotoxicity assay (MTT)” (human, KB3.1 cells (HeLa, cervix carcinoma cell line), HeLa cell line KB3.1, MTT, five days, NA = No activity, a = Proliferation inhibition, no altered or dead cells, read-out: Cytotoxicity (IC50) KB3.1), the IC50 at 5 days came to 16 µg/mL (≈ 31.8 µM). Further, the “Anti-biofilm activity (MIC) SA” value in series [1] came out at 250 µg/mL.
On to `O=C(O)c1cn(C2CC2)c2cc(N3CCNCC3)c(F)cc2c1=O` [Ciprofloxacin, ciprofloxacin, reference compound], for which the MIC in the series with Bacillus subtilis DSM10 (read-out: Antimicrobial activity (MIC) BS) and in the series on Escherichia coli DSM498 (read-out: Antimicrobial activity (MIC) EC) was 0.52 µg/mL (≈ 1.57 µM) throughout.
Take `C/C(=C\c1csc(C)n1)[C@@H]1C[C@@H]2O[C@@H]2CCC[C@H](C)[C@H](O)[C@@H](C)C(=O)C(C)(C)[C@@H](O)CC(=O)O1` [Epothilone A, epothilone A]: it took 0.0038 µg/mL (≈ 0.0077 µM) to reach half-maximal inhibition in the series “Cytotoxicity assay (MTT)” (mouse, Murine fibroblast cell line L929, five days, NA = No activity) (IC50 at 5 days).
For `C/C(=C\c1csc(C)n1)[C@@H]1C[C@@H]2O[C@]2(C)CCC[C@H](C)[C@H](O)[C@@H](C)C(=O)C(C)(C)[C@@H](O)CC(=O)O1` [Epothilone B, epothilone B, reference compound], the IC50 at 5 days in “Cytotoxicity assay (MTT)” (human, HeLa cell line KB3.1, MTT, five days, NA = No activity, a = Proliferation inhibition, no altered or dead cells, read-out: Cytotoxicity (IC50) KB3.1) is 0.00022 µg/mL (≈ 0.000433 µM).
Consider `CC=CC=CC1Cc2cc(OC3OC(CO)C(OC)C(O)C3O)cc(O)c2O1` (centres unmarked) [Glucoasperfuran (3), glycoasperfuran], for which the “Antimicrobial activity (MIC) BS” value in the series with Bacillus subtilis DSM10 is reported as “devoid of activity”. For the same molecule, in the series with Candida tenuis MUCL29892, the “Antimicrobial activity (MIC) CT” value was “devoid of activity”. Also, the “Antimicrobial activity (MIC) EC” value in the series on Escherichia coli DSM498 is given as “devoid of activity”. Besides, in the series on Mucor plumbeus MUCL49355, the “Antimicrobial activity (MIC) MP” value is “devoid of activity”.
With `C[C@@H]1[C@H](O)[C@@H](C)/C=C/C=C/CC/C=C/C=C/C=C/C=C/C(O[C@H]2O[C@H](C)[C@@H](O)[C@H](N)[C@@H]2O)CC2O[C@](O)(CC(O)C(O)CCC(O)CC(O)CC(O)CC(=O)O[C@H]1C)CC(O)C2C(=O)O` (some centres unmarked) [Nystatin, nystatin, reference compound], in the series on Candida tenuis MUCL29892, the “Antimicrobial activity (MIC) CT” value is 0.52 µg/mL. In addition, in the series with Mucor plumbeus MUCL49355, the “Antimicrobial activity (MIC) MP” value is 8.33 µg/mL.
Regarding `CN(C)[C@@H]1C(O)=C(C(N)=O)C(=O)[C@@]2(O)C(O)=C3C(=O)c4c(O)cccc4[C@@](C)(O)[C@H]3C[C@@H]12` [Tetracycline, tetracycline, reference compound], the “Anti-biofilm activity (MIC) PA” value in series [2] was 1.9 µg/mL. Also, the “Anti-biofilm activity (MIC) SA” value in series [1] came out at 1.9 µg/mL.
`C/C=C/C=C/[C@H]1Cc2cc(O)cc(O)c2O1` [asperfuran]: the Antifungal activity result in series [3] is on record as “moderately antifungal”.
Consider ivermectin [reference compound], for which the “Nematicidal CE” value in the series with Caenorhabditis elegans came to 7.5 µg/mL.

The record behind these values is article PMC6941404, “Pigmentosins from Gibellula sp. as antibiofilm agents and a new glycosylated asperfuran from Cordyceps javanica” (Beilstein Journal of Organic Chemistry, 2019).
